From patent US7198958B2, “Method for increasing hydrophilicity of fluorescent label compounds” (Arctic Diagnostics Oy, priority 2001, dated 2007)

Columns and labels:
Assay type in all cases: physicochemical
[1] = test system: mouse IgG anti-AFP; assay: Labelling of mouse IgG anti-AFP with dipyrrometheneboron difluoride dyes; details: 10 fold excess of label, phosphate buffered saline pH 7.4, room temperature 2 h
Experimental: To the solution of 1.5 mg (9.3 nmol) of mouse IgG anti-AFP in 400 μl phosphate buffered saline (10/150 mM, pH 7.4) a 10 fold excess (93 nmol) of compound 2, 4, 5 or 6 in anhydrous N,N-dimethylformamide was added. 40 μl of NaHCO3 (1 M, aq) was added and the mixture was incubated at room temperature for 2 h. The products were purified with NAP-5 gel filtration column (Amersham Pharmacia Biotech, Uppsala, Sweden) using phosphate buffered saline (50/150, 10 mM NaN3, pH 7.4) as eluent. The fast moving coloured fractions were collected. […] The labelling degrees of these protein conjugates (compound 4 and 6) were determined spectrophotometrically. Labelling degrees of 2.1 (compound 4) and 2.3 (compound 6) fluorophores per protein were obtained.

[2] = test system: mouse IgG anti-AFP; assay: Labelling of mouse IgG anti-AFP with rhodamine 6G labels; absorption spectrum of the conjugate; details: for normal absorption band of labelled mouse IgG anti-AFP: absorption spectrum of IgG conjugate in phosphate buffered saline pH 7.4; for additional absorption band of labelled mouse IgG anti-AFP (non-fluorescent aggregates, hydrophobic interactions): absorption spectrum of IgG conjugate, equi-intense band, absent in excitation spectrum
Experimental: To the solution of 0.28 mg (1.75 nmol) of mouse IgG anti-AFP in 200 μl phosphate buffered saline (10/150 mM, pH 7.4) a 10 fold excess (17.5 nmol) of 5-carboxyrhodamine 6G succinimidyl ester (compound 15, Molecular Probes, Eugene, Oreg.) in anhydrous N,N-dimethylformamide or a 20 fold excess of Glu-Tau-succinimide derivative of 5-carboxyrhodamine 6G in acetonitrile water (reaction mixture of example 14, compound 17) was added. 40 μl of NaHCO3 (1 M, aq) was added and the mixtures were incubated at room temperature for 2 h. The products were purified with NAP-5 gel filtration column (Amersham Pharmacia Biotech, Uppsala, Sweden) using phosphate buffered saline (50/150, 10 mM NaN3, pH 7.4) as eluent. The fast moving coloured fractions were collected.
This additional absorption originates from hydrophobic interactions between the fluorophores and protein or between the two fluorophores. […] These non-fluorescent aggregates are typical for hydrophobic xanthene-type dyes (rhodamines and fluoresceins).

[3] = test system: 5′-aminomodified oligonucleotide; assay: Labelling of oligonucleotide; fluorescence yield of labelled oligonucleotide; details: labelled oligonucleotides diluted to equimolar concentrations
Experimental: To the solution of 5′-aminomodified oligonucleotide (17 bases, 28 μg, 5 nmol) in carbonate buffer (200 μl, 100 mM, pH 8.5) a 40 fold excess of labelling reagent (compound 2 or 4) in anhydrous DMF (50 μl) was added. Reaction mixture was incubated at 22° C. for 20 h. The labelled oligonucleotides were purifed by using reverse phase HPLC (RP-18 column) and gradient elution technique. Solvents were A: 2% acetonitrile in triethylammonium acetate buffer (50 mM, pH 7) and B: 70% acetonitrile in triethylammonium acetate buffer (50 mM, pH 7). The gradient started from 5% of solvent B and the amount of solvent B linearly raised to 40% in 25 minutes. Both dye-oligonucleotide conjugates (labelled with compound 2 or with compound 4) eluted between 18 to 22 minutes while the unlabelled oligonucleotide eluted at a timepoint of 10 minutes. The unbound labelling reagent was removed from the column by increasing the amount of solvent B to 100%.
The concentrations of the labelled oligonucleotides were determined spectrophotometrically. […] The labelled oligonucleotides were diluted to equimolar concentrations and the fluorescence yields were determined. […] The higher fluorescence yield of the oligonucleotide labelled with compound 4 can be explained by increased hydrophilicity of the label compound and increased distance between the label and the oligonucleotide.

Row | Compound | precipitation of the labelled proteins on labelling [1] | normal absorption band of labelled mouse IgG anti-AFP [2] | additional absorption band of labelled mouse IgG anti-AFP (non-fluorescent aggregates, hydrophobic interactions) [2] | fluorescence yield of labelled oligonucleotide compared with oligonucleotide labelled with compound 2 [3]
1 | 4,4-difluoro-5-(2-thienyl)-1,3-dimethyl-4-bora-3a,4a-diaza-s-indacene-2-propionic acid succinimidyl ester [compound 2, reference compound] | almost complete precipitation of the labelled proteins | – | – | –
2 | 4,4-difluoro-(2-pyrrolyl)-1,3-dimethyl-4-bora-3a,4a-diaza-s-indacene-2-propionic acid succinimidyl ester [compound 5, reference compound] | almost complete precipitation of the labelled proteins | – | – | –
3 | CCN=c1cc2oc3cc(NCC)c(C)cc3c(-c3ccc(C(=O)ON4C(=O)CCC4=O)cc3C(=O)O)c-2cc1C [compound 15, 5-carboxyrhodamine 6G succinimidyl ester, reference compound] | – | 530 nm | 504 nm | –
4 | Glu-Tau-succinimide derivative of 4,4-difluoro-5-(2-pyrrolyl)-1,3-dimethyl-4-bora-3a,4a-diaza-s-indacene-2-propionic acid [compound 6] | proceeded without any problems | – | – | –
5 | Glu-Tau-succinimide derivative of 4,4-difluoro-5-(2-thienyl)-1,3-dimethyl-4-bora-3a,4a-diaza-s-indacene-2-propionic acid [compound 4] | proceeded without any problems | – | – | one order of magnitude higher
6 | Glu-Tau-succinimide derivative of 5-carboxyrhodamine 6G [compound 17] | – | 530 nm | absence of additional absorption band | –
